For 4 compounds, IC50 and Ki results are on record in ChEMBL document CHEMBL1909046, “DrugMatrix in vitro pharmacology data”.

By IC50 is commonly meant the concentration that gives 50% inhibition.

Sequence of C-C chemokine receptor type 5 (P51681 whole entry): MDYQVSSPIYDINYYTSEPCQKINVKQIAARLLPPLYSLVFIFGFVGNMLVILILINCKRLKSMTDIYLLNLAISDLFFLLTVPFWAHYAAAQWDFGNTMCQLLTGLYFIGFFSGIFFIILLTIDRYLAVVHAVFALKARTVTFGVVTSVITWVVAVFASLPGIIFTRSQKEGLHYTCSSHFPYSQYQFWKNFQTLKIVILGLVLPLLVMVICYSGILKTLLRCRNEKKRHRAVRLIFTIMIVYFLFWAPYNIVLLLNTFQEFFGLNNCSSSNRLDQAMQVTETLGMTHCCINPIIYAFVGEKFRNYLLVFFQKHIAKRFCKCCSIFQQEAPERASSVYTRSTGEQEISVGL

In the first series the target is Protein phosphatase 3 catalytic subunit alpha (Homo sapiens, UniProt Q08209). Further details: species or system Escherichia coli.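 Note: inhibition of calcineurin (PP2B) enzyme activity, measured with DiFMUP as the substrate; in other assays of this panel Not Active means under 50% inhibition at 10 µM.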
Conditions: not given
For the compound `O=C(Nc1ccc(Br)cc1)c1cc(Br)cc(Br)c1O` [TRIBROMSALAN], the IC50 entry was “Not Active”.

As for `CC(c1cc2ccccc2s1)N(O)C(N)=O` (stereo unspecified) [ZILEUTON], the IC50 entry is recorded as “Not Active”.

On to MANGANESE CHLORIDE ANHYDROUS, for which the IC50 result was “Not Active” and the Ki entry is “Not Active”.

For the compound SODIUM ORTHOVANAD, the IC50 entry is on record as “Not Active” and the Ki result is on record as “Not Active”.

For another series, the target named is Cytochrome P450 3A4 (Homo sapiens, UniProt P08684). Particulars: bti-tn-5b1-4. Note: in other assays of this panel Not Active means under 50% inhibition at 10 µM.
Sequence of Cytochrome P450 3A4 (P08684 whole entry): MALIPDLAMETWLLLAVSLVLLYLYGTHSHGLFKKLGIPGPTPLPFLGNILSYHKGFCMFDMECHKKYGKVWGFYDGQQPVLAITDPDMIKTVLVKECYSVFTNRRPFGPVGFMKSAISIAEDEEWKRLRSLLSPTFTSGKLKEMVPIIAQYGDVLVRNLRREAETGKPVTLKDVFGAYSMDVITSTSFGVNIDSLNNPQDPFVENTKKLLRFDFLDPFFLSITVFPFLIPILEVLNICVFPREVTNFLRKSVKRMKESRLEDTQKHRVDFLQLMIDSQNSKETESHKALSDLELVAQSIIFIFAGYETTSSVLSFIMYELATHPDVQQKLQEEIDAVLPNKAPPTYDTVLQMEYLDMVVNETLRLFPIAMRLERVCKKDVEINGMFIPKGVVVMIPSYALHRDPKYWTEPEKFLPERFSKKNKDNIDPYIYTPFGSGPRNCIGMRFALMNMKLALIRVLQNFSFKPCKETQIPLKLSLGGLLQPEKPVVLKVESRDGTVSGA
In the case of `O=C(Nc1ccc(Br)cc1)c1cc(Br)cc(Br)c1O` [TRIBROMSALAN], the IC50 entry was “Not Active” and the Ki entry is recorded as “Not Active”.

As for `CC(c1cc2ccccc2s1)N(O)C(N)=O` (stereo unspecified) [ZILEUTON], the IC50 result is listed as “Not Active” and the Ki entry is recorded as “Not Active”.

Turning to MANGANESE CHLORIDE ANHYDROUS, the IC50 result is recorded as “Not Active” and the Ki result is listed as “Not Active”.

As to SODIUM ORTHOVANAD, the IC50 entry is reported as “Not Active” and the Ki result is “Not Active”.

A further series concerns the target C-C chemokine receptor type 5 (Homo sapiens, UniProt P51681). In kind it is cell membranes, Membrane. Particulars: hek293. Note: in other assays of this panel Not Active means under 50% inhibition at 10 µM.
In the case of `O=C(Nc1ccc(Br)cc1)c1cc(Br)cc(Br)c1O` [TRIBROMSALAN], the IC50 result is “Not Active”.

On to `CC(c1cc2ccccc2s1)N(O)C(N)=O` (stereo unspecified) [ZILEUTON], for which the IC50 entry is “Not Active”.

As for MANGANESE CHLORIDE ANHYDROUS, the IC50 entry is “Not Active” and the Ki entry is given as “Not Active”.

With SODIUM ORTHOVANAD, the IC50 entry was “Not Active” and the Ki result was “Not Active”.

Tested on in another series: not listed separately
Put plainly: DRUGMATRIX: Leukotriene, BLT (LTB4) radioligand binding (ligand: [3H]LTB4). In kind it is cell membranes, Membrane. Particulars: u-937; Not Active = under 50% inhibition at 10 µM.
Turning to `O=C(Nc1ccc(Br)cc1)c1cc(Br)cc(Br)c1O` [TRIBROMSALAN], the IC50 result is on record as “Not Active” and the Ki entry is “Not Active”.

Turning to `CC(c1cc2ccccc2s1)N(O)C(N)=O` (stereo unspecified) [ZILEUTON], the IC50 entry was “Not Active” and the Ki entry is “Not Active”.

On to MANGANESE CHLORIDE ANHYDROUS, for which the IC50 entry is “Not Active” and the Ki result is recorded as “Not Active”.

As to SODIUM ORTHOVANAD, the IC50 entry was “Not Active” and the Ki result is on record as “Not Active”.

Another series deals with Mitogen-activated protein kinase 1 (Homo sapiens, UniProt P28482). Put plainly: DRUGMATRIX: Protein Serine/Threonine Kinase, ERK2 enzyme inhibition (substrate: Myelin Basic Protein). The arrangement: species or system Escherichia coli. As to conditions: Not Active = under 50% inhibition at 10 µM.
Sequence of Mitogen-activated protein kinase 1 (P28482 whole entry): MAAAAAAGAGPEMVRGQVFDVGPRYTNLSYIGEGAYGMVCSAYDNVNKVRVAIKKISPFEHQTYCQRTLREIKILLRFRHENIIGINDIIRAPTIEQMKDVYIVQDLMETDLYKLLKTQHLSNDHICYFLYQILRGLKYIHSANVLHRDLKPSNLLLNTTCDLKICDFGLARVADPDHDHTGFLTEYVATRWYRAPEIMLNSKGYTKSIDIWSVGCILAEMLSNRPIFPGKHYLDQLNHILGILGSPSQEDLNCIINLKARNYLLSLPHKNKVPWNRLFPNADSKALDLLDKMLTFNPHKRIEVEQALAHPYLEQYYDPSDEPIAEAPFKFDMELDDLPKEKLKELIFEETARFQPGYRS
As for `CC(c1cc2ccccc2s1)N(O)C(N)=O` (stereo unspecified) [ZILEUTON], the IC50 result is reported as “Not Active”.

Take MANGANESE CHLORIDE ANHYDROUS: the IC50 entry is “Not Active” and the Ki entry is listed as “Not Active”.

Turning to SODIUM ORTHOVANAD, the IC50 result is recorded as “Not Active” and the Ki entry is on record as “Not Active”.

The same series, now with this note: Not Active = under 50% inhibition at 10 µM; read-out: IC50.
Turning to `O=C(Nc1ccc(Br)cc1)c1cc(Br)cc(Br)c1O` [TRIBROMSALAN], the IC50 was 623 nM.

The next series has as its target T1, Alpha-1B adrenergic receptor (Rattus norvegicus, UniProt P15823).
T1 sequence (P15823 whole entry): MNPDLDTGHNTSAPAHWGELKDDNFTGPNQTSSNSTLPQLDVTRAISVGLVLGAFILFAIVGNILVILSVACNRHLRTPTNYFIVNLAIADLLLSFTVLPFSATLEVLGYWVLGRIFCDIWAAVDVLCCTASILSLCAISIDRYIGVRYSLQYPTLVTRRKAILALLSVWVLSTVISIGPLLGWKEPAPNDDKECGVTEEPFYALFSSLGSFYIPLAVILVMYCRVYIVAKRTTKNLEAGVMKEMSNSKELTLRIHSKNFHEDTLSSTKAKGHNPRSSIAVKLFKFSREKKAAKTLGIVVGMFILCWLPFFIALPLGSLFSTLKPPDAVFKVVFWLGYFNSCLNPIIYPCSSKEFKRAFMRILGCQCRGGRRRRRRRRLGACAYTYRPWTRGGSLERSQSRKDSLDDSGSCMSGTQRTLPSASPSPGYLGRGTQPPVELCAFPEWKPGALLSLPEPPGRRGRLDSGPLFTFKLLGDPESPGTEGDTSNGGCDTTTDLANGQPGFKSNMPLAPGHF
Put plainly: DRUGMATRIX: Alpha-1B adrenergic receptor radioligand binding (ligand: prazosin). Format: cell membranes, Wistar, Liver, Membrane. As to conditions: Not Active = under 50% inhibition at 10 µM.
For the compound `O=C(Nc1ccc(Br)cc1)c1cc(Br)cc(Br)c1O` [TRIBROMSALAN], the IC50 result is reported as “Not Active”.

For `CC(c1cc2ccccc2s1)N(O)C(N)=O` (stereo unspecified) [ZILEUTON], the IC50 entry is listed as “Not Active”.

Turning to MANGANESE CHLORIDE ANHYDROUS, the IC50 entry is “Not Active” and the Ki result was “Not Active”.

For the compound SODIUM ORTHOVANAD, the IC50 result is “Not Active” and the Ki result is given as “Not Active”.

A further series has as its target T2, Progesterone receptor (Bos taurus, UniProt Q690N0).
T2 sequence (Q690N0 whole entry): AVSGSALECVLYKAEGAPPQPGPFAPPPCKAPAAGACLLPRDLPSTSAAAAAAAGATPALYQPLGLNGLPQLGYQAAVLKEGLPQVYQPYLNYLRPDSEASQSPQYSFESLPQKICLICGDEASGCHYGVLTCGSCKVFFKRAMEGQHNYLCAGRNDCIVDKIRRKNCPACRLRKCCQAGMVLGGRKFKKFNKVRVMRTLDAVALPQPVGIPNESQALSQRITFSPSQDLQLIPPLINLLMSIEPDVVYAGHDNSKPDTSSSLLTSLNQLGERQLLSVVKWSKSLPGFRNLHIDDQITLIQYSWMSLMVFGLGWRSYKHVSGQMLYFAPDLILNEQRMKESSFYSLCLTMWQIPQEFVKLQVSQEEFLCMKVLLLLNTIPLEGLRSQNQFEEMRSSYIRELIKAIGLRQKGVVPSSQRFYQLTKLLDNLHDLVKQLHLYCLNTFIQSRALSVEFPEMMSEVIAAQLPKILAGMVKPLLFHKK
Description: DRUGMATRIX: Progesterone radioligand binding (ligand: [3H] R-5020). In kind it is tissue-based, Uterus. As to conditions: Not Active = under 50% inhibition at 10 µM.
For `O=C(Nc1ccc(Br)cc1)c1cc(Br)cc(Br)c1O` [TRIBROMSALAN], the IC50 result is listed as “Not Active”.

In the case of `CC(c1cc2ccccc2s1)N(O)C(N)=O` (stereo unspecified) [ZILEUTON], the IC50 entry is “Not Active”.

As for MANGANESE CHLORIDE ANHYDROUS, the IC50 entry was “Not Active” and the Ki result is reported as “Not Active”.

On to SODIUM ORTHOVANAD, for which the IC50 result is given as “Not Active” and the Ki entry is given as “Not Active”.
